{"source": "patent US7485623B2", "about": "(priority 2002, dated 2009)", "key": {"[1]": {"assay": "Example 1: radioactivity and metabolites in breast tissue after percutaneous [3H]-labeled drug", "protocol": "(§1) The patients received [^3H]-labeled drug applied directly on the affected breasts at specified intervals ranging from 12 hours to 7 days before surgery to excise diseased tissue. Breast tissue from three regions: the tumor, tissue immediately surrounding the tumor, and normal tissue, was excised and immediately frozen in liquid nitrogen. Additionally, plasma and urine samples were obtained at scheduled intervals and frozen until analysis."}, "[2]": {"assay": "Example 3: plasma pharmacokinetics of 4-hydroxy tamoxifen gel in healthy premenopausal women", "conditions": "for AUC0-24, Mean ± SD / Cav = AUC0-24/24, Mean ± SD / tmax, Mean ± SD / Cmax, Mean ± SD / t1/2 (range): last administration; for Cmax, Mean ± SD: day 25 of second cycle", "experimental": "Each participant applied the gel daily for the duration of two menstrual cycles.\nAt the end of a menstrual cycle, each patient received a single dose, after which serial blood samples were collected at 0, 0.5, 1, 1.5, 2, 3, 4, 6, 12, 18, 24, 36, 48, and 72 hours.\nOn the first day of the following menstruation, treatment, which consisted of daily application of the gel over two menstrual cycles, began. Blood samples were collected 24 hours following the morning application of gel on days 7, 20 and 25 of the first and second cycles. On the last day of administration, day 25 of the second menstrual cycle, serial blood samples were collected prior to application and at 0.5, 1, 1.5, 2, 3, 4, 6, 12, 18, 24, 36, 48, and 72 hours after application of the gel."}, "estrone sulphatase": {"target": "T1, estrone sulphatase (Homo sapiens, UniProt P08842)", "T1 construct": "estrone sulphatase activity in mammary cancer cell lines", "T1 sequence (P08842 22-583)": "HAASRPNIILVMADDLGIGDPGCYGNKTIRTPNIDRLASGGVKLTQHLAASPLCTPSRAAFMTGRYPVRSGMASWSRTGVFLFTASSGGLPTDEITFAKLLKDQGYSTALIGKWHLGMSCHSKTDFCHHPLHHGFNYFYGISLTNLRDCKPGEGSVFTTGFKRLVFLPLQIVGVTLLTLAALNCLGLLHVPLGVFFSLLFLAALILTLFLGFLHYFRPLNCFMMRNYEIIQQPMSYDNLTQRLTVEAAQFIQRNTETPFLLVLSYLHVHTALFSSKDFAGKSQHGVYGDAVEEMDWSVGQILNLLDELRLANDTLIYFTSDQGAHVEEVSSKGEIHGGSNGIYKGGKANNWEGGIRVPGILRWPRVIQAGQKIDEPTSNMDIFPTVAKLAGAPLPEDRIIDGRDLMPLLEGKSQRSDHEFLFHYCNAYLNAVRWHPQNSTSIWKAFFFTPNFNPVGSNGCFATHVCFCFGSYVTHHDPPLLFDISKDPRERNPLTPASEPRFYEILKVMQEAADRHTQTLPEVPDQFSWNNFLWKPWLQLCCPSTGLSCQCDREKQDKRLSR", "conditions": "mammary cancer cell lines; cited from earlier work"}, "estrogen receptors": {"test_system": "estrogen receptors", "conditions": "in vitro; cited from earlier work"}, "[3]": {"assay": "Example 1: radioactivity in blood and urine after percutaneous [3H]-labeled drug", "conditions": "for share of radioactivity in blood: 24 hours after percutaneous [3H]-4-hydroxy tamoxifen", "protocol": "as §1"}, "[4]": {"conditions": "topical application"}, "rat liver": {"test_system": "rat liver", "conditions": "cited from earlier work"}, "[5]": {"test_system": "p53(−) normal human mammary epithelial cells", "conditions": "cited from earlier work"}, "[6]": {"conditions": "Group 2 (0.5 mg/day gel), seventh day; Group 1 (oral tamoxifen), fifth day; cited from earlier work"}, "[7]": {"conditions": "oral tamoxifen; cited from earlier work"}, "breast density": {"test_system": "breast density", "conditions": "cited from earlier work"}, "[8]": {"conditions": "12 hr after percutaneous trans-[3H]-4-hydroxy tamoxifen"}, "[9]": {"conditions": "24 hr after percutaneous trans-[3H]-4-hydroxy tamoxifen"}, "[10]": {"conditions": "36 hr after percutaneous trans-[3H]-4-hydroxy tamoxifen"}, "[11]": {"conditions": "Day 4 after percutaneous trans-[3H]-4-hydroxy tamoxifen"}, "[12]": {"conditions": "Day 7 after percutaneous trans-[3H]-4-hydroxy tamoxifen"}, "[13]": {"conditions": "0.5 mg/day (n = 12), gel 20 mg/100 g"}, "[14]": {"conditions": "1 mg/day (n = 8), gel 20 mg/100 g"}, "[15]": {"conditions": "1 mg/day (n = 12), gel 57 mg/100 g"}, "[16]": {"conditions": "2 mg/day (n = 12), gel 57 mg/100 g"}}}
{"molecule": "CC/C(=C(\\c1ccc(O)cc1)c1ccc(OCCN(C)C)cc1)c1ccccc1", "note": "[4-hydroxy tamoxifen, 1-[4-(2-N-dimethylaminoethoxy)phenyl]-1-(4-hydroxyphenyl)-2-phenylbut-1-(Z)-ene]", "values": [{"measurement": "% Metabolites in Breast Tissue", "setting": "[1]; [8]", "value": 97, "unit": "%"}, {"measurement": "% Metabolites in Breast Tissue", "setting": "[1]; [9]", "value": 94, "unit": "%"}, {"measurement": "% Metabolites in Breast Tissue", "setting": "[1]; [10]", "value": 78, "unit": "%"}, {"measurement": "% Metabolites in Breast Tissue", "setting": "[1]; [11]", "value": 70, "unit": "%"}, {"measurement": "% Metabolites in Breast Tissue", "setting": "[1]; [12]", "value": 65, "unit": "%"}, {"measurement": "metabolism in intracellular sites of breast tissue", "setting": "[1]; cytosolic and nuclear fractions", "value": "remained unmetabolized except for limited isomerization from the trans to the cis form"}, {"measurement": "subcellular distribution in breast tissue", "setting": "[1]; percutaneous application", "value": "concentrated predominantly in the cytosolic and nuclear fractions of breast tissue"}, {"measurement": "retention in the breast", "setting": "[1]; percutaneous application of [3H]-labeled drug", "value": "approximately 4 days"}, {"measurement": "AUC0-24, Mean ± SD", "setting": "[2]; [13]", "value": 0.2563, "unit": "ng·h/mL"}, {"measurement": "Cav = AUC0-24/24, Mean ± SD", "setting": "[2]; [13]", "value": "0.0107 ± 0.0085", "unit": "ng/mL"}, {"measurement": "tmax, Mean ± SD", "setting": "[2]; [13]", "value": "40 ± 81", "unit": "h"}, {"measurement": "Cmax, Mean ± SD", "setting": "[2]; [13]", "value": "0.017 ± 0.0085", "unit": "ng/mL"}, {"measurement": "AUC0-24, Mean ± SD", "setting": "[2]; [14]", "value": 0.3009, "unit": "ng·h/mL"}, {"measurement": "Cav = AUC0-24/24, Mean ± SD", "setting": "[2]; [14]", "value": "0.0125 ± 0.0079", "unit": "ng/mL"}, {"measurement": "tmax, Mean ± SD", "setting": "[2]; [14]", "value": "24 ± 18", "unit": "h"}, {"measurement": "Cmax, Mean ± SD", "setting": "[2]; [14]", "value": "0.021 ± 0.014", "unit": "ng/mL"}, {"measurement": "AUC0-24, Mean ± SD", "setting": "[2]; [15]", "value": "0.619 ± 0.466", "unit": "ng·h/mL"}, {"measurement": "Cav = AUC0-24/24, Mean ± SD", "setting": "[2]; [15]", "value": "0.0258 ± 0.0194", "unit": "ng/mL"}, {"measurement": "t1/2 (range)", "setting": "[2]; [15]", "value": "(58-118) hr"}, {"measurement": "tmax, Mean ± SD", "setting": "[2]; [15]", "value": "12.8 ± 14.9", "unit": "h"}, {"measurement": "Cmax, Mean ± SD", "setting": "[2]; [15]", "value": "0.0351 ± 0.0224", "unit": "ng/mL"}, {"measurement": "AUC0-24, Mean ± SD", "setting": "[2]; [16]", "value": "0.998 ± 0.653", "unit": "ng·h/mL"}, {"measurement": "Cav = AUC0-24/24, Mean ± SD", "setting": "[2]; [16]", "value": "0.0416 ± 0.0272", "unit": "ng/mL"}, {"measurement": "t1/2 (range)", "setting": "[2]; [16]", "value": "(49-101) hr"}, {"measurement": "tmax, Mean ± SD", "setting": "[2]; [16]", "value": "11.8 ± 12.3", "unit": "h"}, {"measurement": "Cmax, Mean ± SD", "setting": "[2]; [16]", "value": "0.0516 ± 0.0317", "unit": "ng/mL"}, {"measurement": "detectability in plasma after the last gel application", "setting": "[2]; in vivo", "value": "remained detectable 72 hours after the last gel application"}, {"measurement": "exposure versus dose", "setting": "[2]; topical application, 0.5, 1, and 2 mg", "value": "increases with dose"}, {"measurement": "effect on estrone sulphatase activity", "setting": "estrone sulphatase", "value": "significant inhibitory effect"}, {"measurement": "binding affinity for estrogen receptors, compared with estradiol", "setting": "estrogen receptors", "value": "a binding affinity similar to estradiol"}, {"measurement": "potency as binding affinity to estrogen receptors, compared with tamoxifen", "setting": "estrogen receptors", "value": "more potency than tamoxifen"}, {"measurement": "share of radioactivity in blood", "setting": "[3]", "value": 68, "unit": "%"}, {"measurement": "urinary elimination compared to percutaneous tamoxifen", "setting": "[3]; percutaneous administration", "value": "Peak urinary elimination occurred at a later time"}, {"measurement": "systemic effects", "setting": "[4]", "value": "no detectable laboratory or clinical evidence of systemic effects"}]}
{"molecule": "CC(C)(c1ccc(O)cc1)c1ccc(O)cc1", "note": "[Bisphenol]", "values": [{"measurement": "% Metabolites in Breast Tissue", "setting": "[1]; [8]", "value": 1, "unit": "%"}, {"measurement": "% Metabolites in Breast Tissue", "setting": "[1]; [9]", "value": 2, "unit": "%"}, {"measurement": "% Metabolites in Breast Tissue", "setting": "[1]; [10]", "value": 3, "unit": "%"}, {"measurement": "% Metabolites in Breast Tissue", "setting": "[1]; [11]", "value": 8, "unit": "%"}, {"measurement": "% Metabolites in Breast Tissue", "setting": "[1]; [12]", "value": 8, "unit": "%"}, {"measurement": "share of radioactivity in blood", "setting": "[3]", "value": 11, "unit": "%"}]}
{"molecule": "CC/C(=C(\\c1ccccc1)c1ccc(OCCNC)cc1)c1ccccc1", "note": "[N-Desmethyl tamoxifen]", "values": [{"measurement": "% Metabolites in Breast Tissue", "setting": "[1]; [10]", "value": "<1", "unit": "%"}, {"measurement": "% Metabolites in Breast Tissue", "setting": "[1]; [11]", "value": "<1", "unit": "%"}, {"measurement": "% Metabolites in Breast Tissue", "setting": "[1]; [12]", "value": "3-4%"}]}
{"molecule": "CCC(=C(c1ccc(O)cc1)c1ccc(OCCNC)cc1)c1ccccc1", "note": "[N-Desmethyl-4-Hydroxy Tamoxifen]", "values": [{"measurement": "% Metabolites in Breast Tissue", "setting": "[1]; [8]", "value": 2, "unit": "%"}, {"measurement": "% Metabolites in Breast Tissue", "setting": "[1]; [9]", "value": 4, "unit": "%"}, {"measurement": "% Metabolites in Breast Tissue", "setting": "[1]; [10]", "value": 14, "unit": "%"}, {"measurement": "% Metabolites in Breast Tissue", "setting": "[1]; [11]", "value": 20, "unit": "%"}, {"measurement": "% Metabolites in Breast Tissue", "setting": "[1]; [12]", "value": 16, "unit": "%"}, {"measurement": "share of radioactivity in blood", "setting": "[3]", "value": 18, "unit": "%"}]}
{"molecule": "CC/C(=C(\\c1ccc(O)cc1)c1ccc(OCCN(C)C)cc1)c1ccccc1", "note": "[Trans 4-hydroxy tamoxifen]", "values": [{"measurement": "percentage of radioactivity in breast tissue as isomer of 4-hydroxy tamoxifen", "setting": "[1]; day 7", "value": 32, "unit": "%"}]}
{"molecule": "CC/C(=C(\\c1ccccc1)c1ccc(OCCN(C)C)cc1)c1ccccc1", "note": "[[^3H]-tamoxifen, reference compound]", "values": [{"measurement": "time of plateau of radioactivity in blood", "setting": "[3]; percutaneous application", "value": 2, "unit": "days"}]}
{"molecule": "CC/C(=C(\\c1ccccc1)c1ccc(OCCN(C)C)cc1)c1ccccc1", "note": "[tamoxifen]", "values": [{"measurement": "effect on estrone sulphatase activity", "setting": "estrone sulphatase", "value": "little or no effect"}, {"measurement": "rat liver carcinogenicity", "setting": "rat liver", "value": "potent rat liver carcinogen"}, {"measurement": "initiation of apoptosis", "setting": "[5]", "value": "initiates apoptosis"}, {"measurement": "side effects reported by one person", "setting": "[6]", "value": "hot flashes and mild vaginitis"}, {"measurement": "side effects reported by patients", "setting": "[7]", "value": "hot flashes, vaginal discharge, depression, amenorrhea, and nausea"}, {"measurement": "women with decreased breast parenchyma", "setting": "breast density; 20 mg/day after surgery for breast cancer (Son et al.)", "value": 59.8, "unit": "%"}, {"measurement": "change of mammographic pattern", "setting": "breast density; contralateral breasts of postmenopausal breast cancer patients, 20 mg/day", "value": "significant change toward a less dense mammographic pattern"}, {"measurement": "decrease of breast parenchyma in premenopausal women", "setting": "breast density; premenopausal women, 20 mg/day (Son et al.)", "value": 87, "unit": "%"}]}
